The results in this text go back to patent US20160206645A1, “COMBINATION THERAPIES FOR TREATMENT OF HCV” (priority 2015, published 2016).

Series [1] can be described thus: Pharmacokinetic analysis at week 2 and week 8 (Example 5). The format is in vivo, human.
The nature of series [2]: Plasma PK parameters at Week 2 and Week 8, interim analysis (Example 4). Further details: AUC: concentration or dose not given beside the values. Particulars: for Cmax / AUC: human. It is filed as in vivo, human. As to the method:
Methods: HCV treatment-naïve or (peg)IFN±ribavirin treatment-experienced GT1/4-infected cirrhotic pts≧18 yrs with Child-Pugh (CP) score<7 (Class A) with evidence of portal hypertension or 7-9 (Class B) were enrolled. Pts received 12 wks of SMV (150 mg once daily [QD]), DCV (60 mg QD) and SOF (400 mg QD). Primary efficacy endpoint: sustained virologic response 12 wks after end of treatment (EOT, SVR12). Key secondary endpoints: SVR4, on-treatment failure, viral relapse, PK and safety.

Setting [3] is: plasma, oral, Week 2, Child-Pugh A (n = 19).
The mark [4] stands for this setting: plasma, oral, Week 2, Child-Pugh B (n = 9).
The mark [5] stands for this setting: plasma, oral, Week 8, Child-Pugh A (n = 18).
[6] abbreviates: plasma, oral, Week 8, Child-Pugh B (n = 9).
The mark [7] stands for this setting: in vivo, Week 2, Child-Pugh A (n = 19), plasma.
Where [8] appears, read: in vivo, Week 2, Child-Pugh B (n = 9), plasma.
Where [9] appears, read: in vivo, Week 8, Child-Pugh A (n = 18), plasma.
[10] abbreviates: in vivo, Week 8, Child-Pugh B (n = 9), plasma.

A word on the Cmax: it is the maximum level reached in the sampled fluid or tissue. As usually defined, the AUC is concentration integrated over time. As to `COC(=O)N[C@H](C(=O)N1CCC[C@H]1c1nc(-c2ccc(-c3ccc(-c4c[nH]c([C@@H]5CCCN5C(=O)[C@@H](NC(=O)OC)C(C)C)n4)cc3)cc2)c[nH]1)C(C)C` [Daclatasvir, daclatasvir], in series [1] (treatment with SMV+SOF+DCV), the “mean exposure in Child-Pugh A and Child-Pugh B subjects” value is “similar”. Further, the “Mean exposures within groups and at Wk2 vs Wk8” value in series [2] (CP A and CP B) is on record as “similar”. Moreover, in series [2] (Week 2, Child-Pugh A (n = 19), plasma), the “AUC, mean” value worked out at 16022 ng·h/mL. In addition, the Cmax in series [2] (setting [3]) is 1150 ng/mL; in series [2] (setting [4]) it was 958 ng/mL; in series [2] (setting [5]) it was 1070 ng/mL; in series [2] (setting [6]), 854 ng/mL. Also, the AUC in series [2] (setting [4]) is 14200 ng·h/mL; in series [2] (setting [5]), 15600 ng·h/mL; in series [2] (setting [6]) it was 13500 ng·h/mL.

For `C[C@@]1(F)[C@H](O)[C@@H](CO)O[C@H]1n1ccc(=O)[nH]c1=O` [GS-331007], the “mean exposure in Child-Pugh A and Child-Pugh B subjects” value in series [1] (in vivo) is “similar”.

As to `CC(C)OC(=O)[C@H](C)N[P@](=O)(OC[C@H]1O[C@@H](n2ccc(=O)[nH]c2=O)[C@](C)(F)[C@@H]1O)Oc1ccccc1` [Sofosbuvir, sofosbuvir], the “mean exposure, higher in Child-Pugh B subjects than in Child-Pugh A subjects” value in series [1] (treatment with SMV+SOF+DCV) came to 1.4 fold. In series [2] (CP A and CP B), the “Mean exposures within groups and at Wk2 vs Wk8” value is given as “similar”. Moreover, the AUC was found to be 2860 ng·h/mL in series [2] (setting [7]), 3770 ng·h/mL in series [2] (setting [8]), 2730 ng·h/mL in series [2] (setting [9]) and 3770 ng·h/mL in series [2] (setting [10]). Besides, the Cmax in series [2] (setting [7]) came out at 1570 ng/mL; in series [2] (setting [8]) it was 1740 ng/mL; in series [2] (setting [9]), 1280 ng/mL; in series [2] (setting [10]) it was 1420 ng/mL.

In the case of `COc1ccc2c(O[C@@H]3C[C@H]4C(=O)N[C@]5(C(=O)NS(=O)(=O)C6CC6)C[C@H]5/C=C\CCCCN(C)C(=O)[C@@H]4C3)cc(-c3nc(C(C)C)cs3)nc2c1C` [Simeprevir, simeprevir], the “mean exposure, higher in Child-Pugh B subjects than in Child-Pugh A subjects” value in series [1] (treatment with SMV+SOF+DCV) came to 2.2 fold. Moreover, the “Mean exposures for both groups, Wk2 vs Wk8” value in series [2] (CP A and CP B) was “comparable”. In series [2] (Wk2), the “Mean SMV exposure (AUC), higher in CP B vs CP A pts” value is listed as 1.3 fold. Further, the “individual pt exposures in the CP B group” value in series [2] (compared with CP A) is listed as “within the range observed for CP A”. Further, the AUC in series [2] (setting [3]) was 114000 ng·h/mL; in series [2] (setting [4]) it was 144000 ng·h/mL; in series [2] (setting [5]) it was 98600 ng·h/mL; in series [2] (setting [6]), 176000 ng·h/mL. Also, the Cmax in series [2] (setting [3]) stood at 6980 ng/mL; in series [2] (setting [4]) it was 7950 ng/mL; in series [2] (setting [5]), 6030 ng/mL; in series [2] (setting [6]), 8840 ng/mL.
